Assay results: patent US11370794B2, “Toll-like receptor antagonist compounds and methods of use” (Dynavax Technologies Corporation, priority 2016, dated 2022)

Legend:
TLR-4 = target: T1, TLR-4 (Homo sapiens, UniProt O00206+Q9Y6Y9); assay: Receptor specificity in primary human leukocytes: TLR-4; format: cell-based
T1 construct: related toll-like receptor family members and other nucleic acid intracellular signaling receptors in primary human leukocytes; endogenous in cells; host or cells: primary human leukocytes
Method: (§1) Example B5—Receptor Specificity
(§2) Representative compounds were tested for antagonist activity against related toll-like receptor family members and other nucleic acid intracellular signaling receptors in primary human leukocytes. The compounds were Compound Nos. 5 and 9, and they were tested for their ability to inhibit human RIG-I, TLR-2, TLR-4, and TLR-5. With one exception, neither compound was able to inhibit these receptors greater than 50% at 10 μM.

human RIG-I = target: T2, human RIG-I (Homo sapiens, UniProt O95786); assay: Receptor specificity in primary human leukocytes: RIG-I; format: cell-based
T2 construct: other nucleic acid intracellular signaling receptors in primary human leukocytes; endogenous in cells; host or cells: primary human leukocytes
T2 sequence (O95786 1-925): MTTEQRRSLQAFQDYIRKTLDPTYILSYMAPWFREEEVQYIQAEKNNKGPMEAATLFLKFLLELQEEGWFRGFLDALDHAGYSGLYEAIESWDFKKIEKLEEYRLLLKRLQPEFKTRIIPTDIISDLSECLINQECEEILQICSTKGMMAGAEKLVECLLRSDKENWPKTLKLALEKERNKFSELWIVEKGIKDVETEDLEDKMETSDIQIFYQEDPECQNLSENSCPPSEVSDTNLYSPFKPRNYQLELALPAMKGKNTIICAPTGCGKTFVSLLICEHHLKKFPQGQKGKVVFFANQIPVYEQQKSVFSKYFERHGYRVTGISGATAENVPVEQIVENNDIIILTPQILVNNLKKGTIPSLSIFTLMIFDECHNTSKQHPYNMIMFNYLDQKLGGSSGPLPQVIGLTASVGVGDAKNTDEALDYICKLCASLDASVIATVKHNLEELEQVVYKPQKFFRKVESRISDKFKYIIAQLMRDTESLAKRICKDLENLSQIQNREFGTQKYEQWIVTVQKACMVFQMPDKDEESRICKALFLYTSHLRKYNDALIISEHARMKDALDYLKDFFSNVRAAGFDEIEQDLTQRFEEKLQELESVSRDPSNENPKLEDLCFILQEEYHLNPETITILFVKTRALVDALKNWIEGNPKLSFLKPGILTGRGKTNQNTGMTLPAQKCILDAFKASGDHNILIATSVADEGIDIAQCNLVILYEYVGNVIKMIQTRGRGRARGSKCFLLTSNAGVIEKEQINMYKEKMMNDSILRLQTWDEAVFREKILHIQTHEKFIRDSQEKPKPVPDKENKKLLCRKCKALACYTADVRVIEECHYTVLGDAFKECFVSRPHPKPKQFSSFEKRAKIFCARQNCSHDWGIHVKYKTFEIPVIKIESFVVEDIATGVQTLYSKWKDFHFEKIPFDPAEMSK
Method: as §1, §2

TLR-2 = target: T3, TLR-2 (Homo sapiens, UniProt O60603); assay: Receptor specificity in primary human leukocytes: TLR-2; format: cell-based
T3 construct: related toll-like receptor family members and other nucleic acid intracellular signaling receptors in primary human leukocytes; endogenous in cells; host or cells: primary human leukocytes
Method: as §1, §2

TLR-5 = target: T4, TLR-5 (Homo sapiens, UniProt O60602); assay: Receptor specificity in primary human leukocytes: TLR-5; format: cell-based
T4 construct: related toll-like receptor family members and other nucleic acid intracellular signaling receptors in primary human leukocytes; endogenous in cells; host or cells: primary human leukocytes
Method: as §1, §2

mouse TLR9 = target: T5, mouse TLR9 (Mus musculus, UniProt Q9EQU3); assay: Inhibition of mouse TLR9 in mouse acute challenge model (serum IL-12); format: in vivo; details: 5 mg/Kg, intravenous or intra-peritoneal, serum IL-12 four hours after CpG DNA agonist
T5 construct: Balb/c mice (Charles River); host or cells: Balb/c mice, in vivo
T5 sequence (Q9EQU3 26-1032): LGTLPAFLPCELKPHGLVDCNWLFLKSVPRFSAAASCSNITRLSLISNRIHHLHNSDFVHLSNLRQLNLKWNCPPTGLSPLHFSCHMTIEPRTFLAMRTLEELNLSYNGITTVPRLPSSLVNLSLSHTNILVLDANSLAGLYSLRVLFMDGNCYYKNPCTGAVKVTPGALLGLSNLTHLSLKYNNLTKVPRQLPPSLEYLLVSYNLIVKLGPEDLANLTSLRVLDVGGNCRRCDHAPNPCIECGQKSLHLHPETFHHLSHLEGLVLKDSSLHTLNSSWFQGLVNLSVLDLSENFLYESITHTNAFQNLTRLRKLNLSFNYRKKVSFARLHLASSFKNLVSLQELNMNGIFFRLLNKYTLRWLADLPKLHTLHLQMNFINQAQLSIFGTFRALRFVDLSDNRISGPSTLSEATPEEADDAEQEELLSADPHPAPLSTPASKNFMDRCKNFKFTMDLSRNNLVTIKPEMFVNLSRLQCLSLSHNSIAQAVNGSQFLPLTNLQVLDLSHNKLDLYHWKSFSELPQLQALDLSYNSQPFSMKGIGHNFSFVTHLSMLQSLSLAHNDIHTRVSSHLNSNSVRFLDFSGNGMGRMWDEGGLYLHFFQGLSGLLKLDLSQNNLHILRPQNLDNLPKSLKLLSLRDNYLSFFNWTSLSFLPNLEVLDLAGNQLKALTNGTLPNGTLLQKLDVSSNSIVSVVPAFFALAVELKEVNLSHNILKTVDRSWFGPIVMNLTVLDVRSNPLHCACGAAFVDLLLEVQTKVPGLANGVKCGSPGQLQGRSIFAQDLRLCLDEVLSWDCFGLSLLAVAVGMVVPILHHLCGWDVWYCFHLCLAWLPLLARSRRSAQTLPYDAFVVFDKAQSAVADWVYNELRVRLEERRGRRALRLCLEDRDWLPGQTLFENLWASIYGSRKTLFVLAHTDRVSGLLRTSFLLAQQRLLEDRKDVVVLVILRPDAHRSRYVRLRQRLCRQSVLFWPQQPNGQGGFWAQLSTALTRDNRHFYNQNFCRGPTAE
Method: Example B4—Inhibition of Mouse TLR9 in Mouse Acute Challenge Model
When administered a CpG-containing DNA oligonucleotide, mice respond in an acute manner with release of cytokines into the peripheral blood within 6 hours. The addition of an inhibitor against TLR9 will attenuate the response to the DNA oligonucleotide agonist, which can be measured through a reduction in serum cytokines.
Balb/c mice (Charles River). TLR9 agonist 1018 ISS, CpG-containing DNA oligonucleotide. Mouse interleukin (IL)-12p40 ELISA kit (BD Pharmingen Cat. No. 551219 and 554476).
Mice were injected by the intravenous or intra-peritoneal routes with test compound at 5 mg/kg. Following injection of test compound, mice were injected with a TLR9 agonist (a CpG-containing DNA oligonucleotide) by the intra-peritoneal route to a final dose of approximately 2.5 mg/kg. Four hours following administration of the DNA oligonucleotide, blood was collected and processed to serum. The serum was tested for the presence of IL-12 using an ELISA kit. The amount of IL-12 produced is a reflection of the amount of TLR9-dependent receptor activity.

T4 sequence (O60602 21-858): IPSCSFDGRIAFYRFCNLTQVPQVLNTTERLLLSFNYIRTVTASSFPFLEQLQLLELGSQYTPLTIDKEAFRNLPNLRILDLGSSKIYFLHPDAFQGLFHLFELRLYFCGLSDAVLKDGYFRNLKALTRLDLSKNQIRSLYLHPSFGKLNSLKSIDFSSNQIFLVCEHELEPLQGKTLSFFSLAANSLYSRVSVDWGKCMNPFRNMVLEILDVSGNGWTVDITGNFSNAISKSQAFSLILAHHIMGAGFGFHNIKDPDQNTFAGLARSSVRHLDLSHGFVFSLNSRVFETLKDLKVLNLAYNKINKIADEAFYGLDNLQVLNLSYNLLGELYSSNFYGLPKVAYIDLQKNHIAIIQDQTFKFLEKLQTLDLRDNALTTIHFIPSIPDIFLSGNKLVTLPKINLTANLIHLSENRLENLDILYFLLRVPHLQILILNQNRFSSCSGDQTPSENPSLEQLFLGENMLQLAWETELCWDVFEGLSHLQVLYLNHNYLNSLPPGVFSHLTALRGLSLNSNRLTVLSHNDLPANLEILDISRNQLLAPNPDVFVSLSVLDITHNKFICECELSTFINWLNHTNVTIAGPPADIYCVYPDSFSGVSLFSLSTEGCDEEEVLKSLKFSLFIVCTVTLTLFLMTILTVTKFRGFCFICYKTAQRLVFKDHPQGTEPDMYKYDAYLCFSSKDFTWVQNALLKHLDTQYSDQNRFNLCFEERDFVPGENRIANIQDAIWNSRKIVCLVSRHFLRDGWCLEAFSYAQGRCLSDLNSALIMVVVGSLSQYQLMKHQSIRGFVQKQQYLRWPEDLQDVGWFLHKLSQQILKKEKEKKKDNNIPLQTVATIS
T1 sequence (O00206 24-839): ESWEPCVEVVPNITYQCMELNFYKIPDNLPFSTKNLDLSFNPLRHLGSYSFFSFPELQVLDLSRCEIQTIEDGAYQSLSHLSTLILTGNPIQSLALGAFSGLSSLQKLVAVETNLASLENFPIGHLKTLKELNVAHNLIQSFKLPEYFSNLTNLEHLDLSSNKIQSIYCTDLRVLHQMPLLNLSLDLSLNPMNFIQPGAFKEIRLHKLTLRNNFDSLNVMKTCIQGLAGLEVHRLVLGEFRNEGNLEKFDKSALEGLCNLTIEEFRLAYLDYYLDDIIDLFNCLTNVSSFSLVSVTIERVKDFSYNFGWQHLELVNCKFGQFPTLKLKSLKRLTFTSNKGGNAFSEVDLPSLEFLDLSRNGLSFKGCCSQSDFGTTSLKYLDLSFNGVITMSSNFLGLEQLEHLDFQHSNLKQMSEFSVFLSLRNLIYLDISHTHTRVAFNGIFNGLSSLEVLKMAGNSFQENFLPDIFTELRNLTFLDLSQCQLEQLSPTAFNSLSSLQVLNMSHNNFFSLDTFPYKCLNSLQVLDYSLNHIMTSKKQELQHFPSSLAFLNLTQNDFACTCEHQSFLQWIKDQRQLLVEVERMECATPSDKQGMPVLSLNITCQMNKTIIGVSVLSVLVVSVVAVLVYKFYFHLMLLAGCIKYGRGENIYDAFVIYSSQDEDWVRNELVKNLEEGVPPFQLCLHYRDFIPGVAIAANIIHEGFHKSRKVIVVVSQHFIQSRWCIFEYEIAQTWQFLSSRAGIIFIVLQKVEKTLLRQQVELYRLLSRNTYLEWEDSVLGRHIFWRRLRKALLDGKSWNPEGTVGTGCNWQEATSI
T1 sequence (Q9Y6Y9 17-160 limits assumed): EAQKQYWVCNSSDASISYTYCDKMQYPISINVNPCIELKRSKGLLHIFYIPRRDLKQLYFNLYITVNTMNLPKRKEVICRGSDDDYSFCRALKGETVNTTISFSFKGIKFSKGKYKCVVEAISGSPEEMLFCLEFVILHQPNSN
T3 sequence (O60603 21-784): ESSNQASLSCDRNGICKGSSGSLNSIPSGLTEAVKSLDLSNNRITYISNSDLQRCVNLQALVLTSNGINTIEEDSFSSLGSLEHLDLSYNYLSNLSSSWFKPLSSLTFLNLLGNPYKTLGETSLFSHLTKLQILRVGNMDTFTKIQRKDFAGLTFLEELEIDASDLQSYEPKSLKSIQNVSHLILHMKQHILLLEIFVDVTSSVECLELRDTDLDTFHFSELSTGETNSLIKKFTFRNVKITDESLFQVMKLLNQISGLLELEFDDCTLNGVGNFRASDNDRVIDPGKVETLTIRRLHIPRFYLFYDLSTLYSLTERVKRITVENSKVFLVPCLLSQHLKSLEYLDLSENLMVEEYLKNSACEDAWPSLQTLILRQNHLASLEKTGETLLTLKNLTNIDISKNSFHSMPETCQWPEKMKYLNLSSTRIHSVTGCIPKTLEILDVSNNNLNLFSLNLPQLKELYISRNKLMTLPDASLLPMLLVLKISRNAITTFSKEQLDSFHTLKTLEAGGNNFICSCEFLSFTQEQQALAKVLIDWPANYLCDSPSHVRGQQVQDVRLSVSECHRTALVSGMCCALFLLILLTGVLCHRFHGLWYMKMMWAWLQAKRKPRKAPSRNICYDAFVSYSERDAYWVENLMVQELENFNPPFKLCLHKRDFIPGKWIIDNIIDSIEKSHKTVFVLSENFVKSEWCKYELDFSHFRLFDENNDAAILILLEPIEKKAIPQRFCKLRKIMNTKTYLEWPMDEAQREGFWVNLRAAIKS

Compound | inhibition at 10 µM (TLR-4) | inhibition at 10 µM (human RIG-I; at 10 μM) | inhibition at 10 µM (TLR-2) | inhibition at 10 µM (TLR-5) | inhibition of TLR9 activity in mice (FIG. 1) (mouse TLR9) | IC50 (human RIG-I; read-out: IC50 against RIG-I)
Cc1ccc(-n2nc3c(N4CCC(C(=O)NCCCN(C)C)CC4)nnc(C)c3c2C)cc1 [Compound No. 5, 1-(3,4-dimethyl-2-(p-tolyl)-2H-pyrazolo[3,4-d]pyridazin-7-yl)-N-(3-(dimethylamino)propyl)piperidine-4-carboxamide] | ≤ 50% | ≤ 50% | ≤ 50% | ≤ 50% | inhibition of TLR9 activity | 
Cc1ccc(-n2nc3c(N4CCC(CCC(=O)NCCN(C)C)CC4)nnc(C)c3c2C)cc1 [Compound No. 9, 3-(1-(3,4-dimethyl-2-(p-tolyl)-2H-pyrazolo[3,4-d]pyridazin-7-yl)piperidin-4-yl)-N-(2-(dimethylamino)ethyl)propanamide] | ≤ 50% |  | ≤ 50% | ≤ 50% |  | 8.3 µM
